Laboratory results reported in US20060004197A1, “Sulfonamide-based compounds as protein tyrosine kinase inhibitors” (priority 2004, published 2006).

biological target: T1, Recombinant human Src (Homo sapiens, UniProt P12931); assay: Src tyrosine kinase activity, poly E4Y / 32P-ATP phosphorylation assay; type: biochemical; details: Table 2, Formula I compounds; NI = no inhibition at 100 μg/mL
T1 construct: made in house; host or cells: baculovirus-insect cell system
Experimental: Recombinant human Src was expressed using the baculovirus-insect cell system and purified as published (Budde et al., 1993 and 2000).
The tyrosine kinase activity of Src, Csk and FGFr was determined using poly E4Y and ^32P-ATP. Briefly, enzymes were assayed in a reaction mixture consisting of 0.15 M EPPS-NaOH (pH 8.0) with 6 mM MgCl2, 0.2 mM γ^32P-ATP (0.2-0.4 mCi/μmol), 10% glycerol, 0.1% Triton X-100, and poly E4Y. Poly E4Y is a synthetic peptide whose phosphorylation is measured in this assay by the addition of the radioactively labeled phosphate from the ATP (Budde et al., 1995). […] When ATP was varied (0, 50, 100 and 250 μM), poly E4Y was kept constant at 150 μg/ml.

T1 sequence (P12931 whole entry): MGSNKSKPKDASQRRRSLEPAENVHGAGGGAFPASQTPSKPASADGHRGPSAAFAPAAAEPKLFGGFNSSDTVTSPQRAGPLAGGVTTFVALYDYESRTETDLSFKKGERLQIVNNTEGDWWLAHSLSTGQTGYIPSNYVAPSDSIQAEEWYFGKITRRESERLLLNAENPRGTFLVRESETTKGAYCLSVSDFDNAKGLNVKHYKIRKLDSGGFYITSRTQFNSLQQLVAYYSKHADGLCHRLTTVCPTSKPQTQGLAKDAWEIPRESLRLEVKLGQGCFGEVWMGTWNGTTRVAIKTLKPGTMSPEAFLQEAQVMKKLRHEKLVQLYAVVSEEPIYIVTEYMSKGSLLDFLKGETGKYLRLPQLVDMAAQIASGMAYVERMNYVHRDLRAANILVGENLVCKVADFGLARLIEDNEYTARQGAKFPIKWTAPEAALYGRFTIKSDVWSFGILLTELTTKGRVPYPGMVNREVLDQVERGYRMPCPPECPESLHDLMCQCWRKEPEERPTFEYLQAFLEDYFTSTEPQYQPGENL

IC50 [µM]	SMILES
> 176	Cc1ccc(S(=O)(=O)Nc2cc(NCc3cccnc3)c([N+](=O)[O-])cc2NS(=O)(=O)c2ccc(C)cc2)cc1 [Compound 9d, N-[5-nitro-4-[(pyridin-3-ylmethyl)-amino]-2-(4-toluenesulfonylamino)-phenyl]-4-toluenesulfonamide]
54	Cc1ccc(S(=O)(=O)Nc2cc(NCc3ccccc3Cl)c([N+](=O)[O-])cc2NS(=O)(=O)c2ccc(C)cc2)cc1 [Compound 9g, N-[4-(2-chloro-benzylamino)-5-nitro-2-(4-toluenesulfonylamino)-phenyl]-4-toluenesulfonamide]

same assay, conditions: Table 2; compound at 15 ug/mL; read-out: % Inhibition at 15 ug/mL Src (%)

SMILES	inhibition at 15 µg/mL [%]
Cc1ccc(S(=O)(=O)Nc2cc(N3CCN(C)CC3)c([N+](=O)[O-])cc2NS(=O)(=O)c2ccc(C)cc2)cc1 [Compound 9b, N-[4-(4-methyl-piperazin-1-yl)-5-nitro-2-(4-toluenesulfonylamino)-phenyl]-4-toluenesulfonamide]	2
Cc1ccc(S(=O)(=O)Nc2cc(N3CCSCC3)c([N+](=O)[O-])cc2NS(=O)(=O)c2ccc(C)cc2)cc1 [Compound 9c, N-[5-nitro-4-(thiomorpholin-4-yl)-2-(4-toluenesulfonylamino)-phenyl]-4-toluenesulfonamide]	15
Cc1ccc(S(=O)(=O)Nc2cc(NCC3CCCCC3)c([N+](=O)[O-])cc2NS(=O)(=O)c2ccc(C)cc2)cc1 [Compound 9h, N-[4-(cyclohexylmethyl-amino)-5-nitro-2-(4-toluenesulfonylamino)-phenyl]-4-toluenesulfonamide]	22
Cc1ccc(S(=O)(=O)Nc2cc(NCC3(O)CCCCC3)c([N+](=O)[O-])cc2NS(=O)(=O)c2ccc(C)cc2)cc1 [Compound 9i, N-[4-(1-hydroxy-cyclohexylmethyl-amino)-5-nitro-2-(4-toluenesulfonylamino)-phenyl]-4-toluenesulfonamide]	18
Cc1ccc(S(=O)(=O)Nc2cc(NC3CCCCC3)c([N+](=O)[O-])cc2NS(=O)(=O)c2ccc(C)cc2)cc1 [Compound 9j, N-[4-cyclohexylamino-5-nitro-2-(4-toluenesulfonylamino)-phenyl]-4-toluenesulfonamide]	4
Cc1ccc(S(=O)(=O)Nc2cc(NCCCc3cn[nH]c3C)c([N+](=O)[O-])cc2NS(=O)(=O)c2ccc(C)cc2)cc1 [Compound 9k, N-[4-[3-(5-methyl-1H-pyrazol-4-yl)-propylamino]-5-nitro-2-(4-toluenesulfonylamino)-phenyl]-4-toluenesulfonamide]	13

The remaining lines, values ahead:

inhibition at 15 µg/mL [%]	SMILES
15	Cc1ccc(S(=O)(=O)Nc2cc(NCc3ccccn3)c([N+](=O)[O-])cc2NS(=O)(=O)c2ccc(C)cc2)cc1 [Compound 9e, N-[5-nitro-4-[(pyridin-2-ylmethyl)-amino]-2-(4-toluenesulfonylamino)-phenyl]-4-toluenesulfonamide]
17	COc1ccc(CNc2cc(NS(=O)(=O)c3ccc(C)cc3)c(NS(=O)(=O)c3ccc(C)cc3)cc2[N+](=O)[O-])cc1 [Compound 9f, N-[4-(4-methoxy-benzylamino)-5-nitro-2-(4-toluenesulfonylamino)-phenyl]-4-toluenesulfonamide]
65	Cc1ccc(S(=O)(=O)Nc2cc(NCc3ccccc3Cl)c([N+](=O)[O-])cc2NS(=O)(=O)c2ccc(C)cc2)cc1 [Compound 9g, N-[4-(2-chloro-benzylamino)-5-nitro-2-(4-toluenesulfonylamino)-phenyl]-4-toluenesulfonamide]

same assay, conditions: Table 2; compound at 50 μg/mL (starred values); read-out: % Inhibition Src (%), * = assayed at 50 μg/mL

inhibition at 50 µg/mL [%]	SMILES
13	Cc1ccc(S(=O)(=O)Nc2cc(N3CCOCC3)c([N+](=O)[O-])cc2NS(=O)(=O)c2ccc(C)cc2)cc1 [Compound 9a, N-[4-(morpholin-4-yl)-5-nitro-2-(4-toluenesulfonylamino)-phenyl]-4-toluenesulfonamide]
19	Cc1ccc(S(=O)(=O)Nc2cc(NCc3cccnc3)c([N+](=O)[O-])cc2NS(=O)(=O)c2ccc(C)cc2)cc1 [Compound 9d, N-[5-nitro-4-[(pyridin-3-ylmethyl)-amino]-2-(4-toluenesulfonylamino)-phenyl]-4-toluenesulfonamide]

same assay, conditions: Table 3, Formula II compounds; NI = no inhibition at 100 μg/mL

SMILES	IC50 [µM]
C=CCc1c(OCc2ccc(OC)cc2)ccc(NS(=O)(=O)c2ccc(C)cc2)c1NS(=O)(=O)c1ccc(C)cc1 [Compound 15a, N-[3-allyl-4-(4-methoxy-benzyloxy)-2-(4-toluenesulfonylamino)-phenyl]-4-toluenesulfonamide]	212
COc1ccc(Oc2ccc(NS(=O)(=O)c3cccc(OC)c3)c(NS(=O)(=O)c3ccc(C)cc3)c2)cc1 [Compound 22aa, 3-methoxy-N-[4-(4-methoxy-phenoxy)-2-(4-toluenesulfonylamino)-phenyl]-benzenesulfonamide]	133
COc1ccc(Oc2ccc(NS(=O)(=O)c3ccc(Br)s3)c(NS(=O)(=O)c3ccc(C)cc3)c2)cc1 [Compound 22bb, N-[4-(4-methoxy-phenoxy)-2-(4-toluenesulfonylamino)-phenyl]-5-bromo-thiophene-2-sulfonamide]	19.5
COc1ccc(Oc2ccc(NS(=O)(=O)c3cccc4cnccc34)c(NS(=O)(=O)c3ccc(C)cc3)c2)cc1 [Compound 22cc, N-[4-(4-methoxy-phenoxy)-2-(4-toluenesulfonylamino)-phenyl]-isoquinoline-5-sulfonamide]	45
COc1ccc(Oc2ccc(NS(=O)(=O)c3ccc(C)cc3)c(NS(=O)(=O)CCc3cccc4ccccc34)c2)cc1 [Compound 22ee, N-[4-(4-methoxy-phenoxy)-2-(2-naphthalen-1-yl-ethanesulfonylamino)-phenyl]-4-toluenesulfonamide]	50
COc1ccc(Oc2ccc(NS(=O)(=O)c3ccc(C)cc3)c(NS(=O)(=O)c3ccc(Br)s3)c2)cc1 [Compound 22gg, 5-bromo-N-[5-(4-methoxy-phenoxy)-2-(4-toluenesulfonylamino)-phenyl]-thiophene-2-sulfonamide]	24

The remaining lines, values ahead:

IC50 [µM]	SMILES
131	CC(=O)OCCCCCOc1ccc(NS(=O)(=O)c2ccc(C)cc2)c(NS(=O)(=O)c2ccc(C)cc2)c1 [Compound 12ee, 5-[3,4-bis-(4-toluenesulfonylamino)-phenoxy]-pentyl acetate]
300	Cc1ccc(S(=O)(=O)Nc2ccc(C(=O)NC(C)(C)C)cc2NS(=O)(=O)c2ccc(C)cc2)cc1 [Compound 22c, N-t-butyl-3,4-bis-(4-toluenesulfonylamino)-benzamide]
149	Cc1ccc(S(=O)(=O)Nc2ccc(C(=O)Nc3ccccc3)cc2NS(=O)(=O)c2ccc(C)cc2)cc1 [Compound 22e, N-phenyl-3,4-bis-(4-toluenesulfonylamino)-benzamide]
18	Cc1ccc(S(=O)(=O)Nc2ccc(C(=O)NCc3cccc4ccccc34)cc2NS(=O)(=O)c2ccc(C)cc2)cc1 [Compound 22g, N-naphthalen-1-ylmethyl-3,4-bis-(4-toluenesulfonylamino)-benzamide]
47	Cc1ccc(S(=O)(=O)Nc2ccc(NC(=O)Cc3ccccc3)cc2NS(=O)(=O)c2ccc(C)cc2)cc1 [Compound 22h, 2-phenyl-N-[3,4-bis-(4-toluenesulfonylamino)-phenyl]-acetamide]

same assay, conditions: Table 3; compound at 15 μg/mL; read-out: % Inhibition at 15 μg/mL Src (%)

SMILES	inhibition at 15 µg/mL [%]
Cc1ccc(S(=O)(=O)Nc2ccc(OCCCCCCCCO)cc2NS(=O)(=O)c2ccc(C)cc2)cc1 [Compound 12dd, N-[4-(8-hydroxy-octyloxy)-2-(4-toluenesulfonylamino)-phenyl]-4-toluenesulfonamide]	36
COC(=O)c1c(S(=O)(=O)Nc2cc(Oc3ccc(OC)cc3)ccc2NS(=O)(=O)c2ccc(C)cc2)c(C)n(C)c1C [Compound 22dd, methyl 4-[5-(4-methoxy-phenoxy)-2-(4-toluenesulfonylamino)-phenylsulfamoyl]-1,2,5-trimethyl-1H-pyrrole-3-carboxylate]	5
COc1ccc(Oc2ccc(NS(=O)(=O)c3ccc(C)cc3)c(NS(=O)(=O)c3ccc(S(C)(=O)=O)cc3)c2)cc1 [Compound 22ff, 4-methanesulfonyl-N-[5-(4-methoxy-phenoxy)-2-(4-toluenesulfonylamino)-phenyl]-benzenesulfonamide]	2
COc1ccc(Oc2ccc(NS(=O)(=O)c3ccc(C)cc3)c(NS(=O)(=O)c3ccc(C)cc3OC)c2)cc1 [Compound 22hh, 2-methoxy-N-[5-(4-methoxy-phenoxy)-2-(4-toluenesulfonylamino)-phenyl]-4-methyl-benzenesulfonamide]	17

Further lines, results first:

inhibition at 15 µg/mL [%]	SMILES
19	C=CCOc1ccc(NS(=O)(=O)c2ccc(C)cc2)c(NS(=O)(=O)c2ccc(C)cc2)c1 [Compound 12cc, N-[4-allyloxy-2-(4-toluenesulfonylamino)-phenyl]-4-toluenesulfonamide]
25	COc1ccc(CCNC(=O)c2ccc(NS(=O)(=O)c3ccc(C)cc3)c(NS(=O)(=O)c3ccc(C)cc3)c2)cc1 [Compound 22b, N-[2-(4-methoxy-phenyl)-ethyl]-3,4-bis-(4-toluenesulfonylamino)-benzamide]
0	Cc1ccc(S(=O)(=O)Nc2ccc(C(=O)Nc3cccnc3)cc2NS(=O)(=O)c2ccc(C)cc2)cc1 [Compound 22d, N-pyridin-3-yl-3,4-bis-(4-toluenesulfonylamino)-benzamide]
3	Cc1ccc(S(=O)(=O)Nc2ccc(C(=O)NCC(C)(C)CO)cc2NS(=O)(=O)c2ccc(C)cc2)cc1 [Compound 22f, N-(3-hydroxy-2,2-dimethyl-propyl)-3,4-bis-(4-toluenesulfonylamino)-benzamide]
26	Cc1ccc(S(=O)(=O)Nc2ccc(NS(=O)(=O)c3cccs3)cc2NS(=O)(=O)c2ccc(C)cc2)cc1 [Compound 22i, N-[3,4-bis-(4-toluenesulfonylamino)-phenyl]-thiophene-2-sulfonamide]

same assay, conditions: Table 3; compound at 50 μg/mL (starred values); read-out: % Inhibition Src (%), * = assayed at 50 μg/mL

inhibition at 50 µg/mL [%]	SMILES
9	Cc1ccc(S(=O)(=O)Nc2ccc(OCCCCCO)cc2NS(=O)(=O)c2ccc(C)cc2)cc1 [Compound 12s, N-[4-(5-hydroxy-pentyloxy)-2-(4-toluenesulfonylamino)-phenyl]-4-toluenesulfonamide]
